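Method: 48-hour compound exposure of cells in 96-well plates, five concentrations, linear interpolation of endpoints. GI50 marks 50% less growth. At the TGI there is no net growth.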
Legend:
Experiment in all cases: NCI-60 cell line screen, 48 h
786-0 renal = test system: 786-0 renal
A498 renal = test system: A498 renal
A549 NSCLC = test system: A549 NSCLC
ACHN renal = test system: ACHN renal
BT-549 breast = test system: BT-549 breast
CAKI-1 renal = test system: CAKI-1 renal
CCRF-CEM leukemia = test system: CCRF-CEM leukemia
COLO 205 colon = test system: COLO 205 colon
DU-145 prostate = test system: DU-145 prostate
HCC-2998 colon = test system: HCC-2998 colon
HCT-116 colon = test system: HCT-116 colon
HCT-15 colon = test system: HCT-15 colon
HL-60(TB) leukemia = test system: HL-60(TB) leukemia
HOP-62 NSCLC = test system: HOP-62 NSCLC
HS 578T breast = test system: HS 578T breast
HT29 colon = test system: HT29 colon
IGROV1 ovarian = test system: IGROV1 ovarian
K-562 leukemia = test system: K-562 leukemia
KM12 colon = test system: KM12 colon
M14 melanoma = test system: M14 melanoma
MALME-3M melanoma = test system: MALME-3M melanoma
MCF7 breast = test system: MCF7 breast
MDA-MB-231 breast = test system: MDA-MB-231 breast
MDA-MB-435 = test system: MDA-MB-435
MOLT-4 leukemia = test system: MOLT-4 leukemia
NCI-H226 lung = test system: NCI-H226 lung
NCI-H23 lung = test system: NCI-H23 lung
NCI-H460 lung = test system: NCI-H460 lung
NCI-H522 lung = test system: NCI-H522 lung
NCI/ADR-RES ovarian = test system: NCI/ADR-RES ovarian
OVCAR-3 ovarian = test system: OVCAR-3 ovarian
OVCAR-4 ovarian = test system: OVCAR-4 ovarian
OVCAR-5 ovarian = test system: OVCAR-5 ovarian
OVCAR-8 ovarian = test system: OVCAR-8 ovarian
PC-3 prostate = test system: PC-3 prostate
RPMI-8226 leukemia = test system: RPMI-8226 leukemia
RXF 393 renal = test system: RXF 393 renal
SF-268 CNS = test system: SF-268 CNS
SF-295 CNS = test system: SF-295 CNS
SF-539 CNS = test system: SF-539 CNS
SK-MEL-28 melanoma = test system: SK-MEL-28 melanoma
SK-MEL-5 melanoma = test system: SK-MEL-5 melanoma
SK-OV-3 ovarian = test system: SK-OV-3 ovarian
SN12C renal = test system: SN12C renal
SNB-19 CNS = test system: SNB-19 CNS
SNB-75 CNS = test system: SNB-75 CNS
SR leukemia = test system: SR leukemia
SW-620 colon = test system: SW-620 colon
T-47D breast = test system: T-47D breast
TK-10 renal = test system: TK-10 renal
UACC-257 melanoma = test system: UACC-257 melanoma
UACC-62 melanoma = test system: UACC-62 melanoma
UO-31 renal = test system: UO-31 renal

CCN(CC)CCCC(C)N/C(c1cccc(OC)c1)=c1\c(=O)[nH]n(-c2c3ccccc3nc3ccccc23)c(=O)\c1=C(/NC(C)CCCN(CC)CC)c1cccc(OC)c1 (stereo unspecified)
GI50 (786-0 renal): 1170 nM | TGI (786-0 renal): 3040 nM | GI50 (A498 renal): 1520 nM | TGI (A498 renal): 2930 nM | GI50 (A549 NSCLC): 992 nM | TGI (A549 NSCLC): 4250 nM | GI50 (ACHN renal): 508 nM | TGI (ACHN renal): 2350 nM | GI50 (BT-549 breast): 2150 nM | TGI (BT-549 breast): 4850 nM | GI50 (CAKI-1 renal): 1660 nM | TGI (CAKI-1 renal): 4170 nM | GI50 (CCRF-CEM leukemia): 482 nM | TGI (CCRF-CEM leukemia): 3930 nM | GI50 (COLO 205 colon): 1220 nM | TGI (COLO 205 colon): 2790 nM | GI50 (DU-145 prostate): 1440 nM | TGI (DU-145 prostate): 8860 nM | GI50 (HCC-2998 colon): 1440 nM | TGI (HCC-2998 colon): 2920 nM | GI50 (HCT-116 colon): 491 nM | TGI (HCT-116 colon): 3250 nM | GI50 (HCT-15 colon): 1020 nM | TGI (HCT-15 colon): 6910 nM | GI50 (HL-60(TB) leukemia): 2160 nM | TGI (HL-60(TB) leukemia): 5230 nM | GI50 (HOP-62 NSCLC): 1470 nM | TGI (HOP-62 NSCLC): 5030 nM | GI50 (HS 578T breast): 2300 nM | TGI (HS 578T breast): 7280 nM | GI50 (HT29 colon): 591 nM | TGI (HT29 colon): 2510 nM | GI50 (IGROV1 ovarian): 1520 nM | TGI (IGROV1 ovarian): 4990 nM | GI50 (K-562 leukemia): 1410 nM | TGI (K-562 leukemia): 5640 nM | GI50 (KM12 colon): 1180 nM | TGI (KM12 colon): 6510 nM | GI50 (M14 melanoma): 2010 nM | TGI (M14 melanoma): 4100 nM | GI50 (MALME-3M melanoma): 1900 nM | TGI (MALME-3M melanoma): 3540 nM | GI50 (MCF7 breast): 507 nM | TGI (MCF7 breast): 3410 nM | GI50 (MDA-MB-231 breast): 1250 nM | TGI (MDA-MB-231 breast): 3260 nM | GI50 (MDA-MB-435): 1450 nM | TGI (MDA-MB-435): 2980 nM | GI50 (MOLT-4 leukemia): 600 nM | TGI (MOLT-4 leukemia): 3890 nM | GI50 (NCI-H226 lung): 1160 nM | TGI (NCI-H226 lung): 3630 nM | GI50 (NCI-H23 lung): 2020 nM | TGI (NCI-H23 lung): 4690 nM | GI50 (NCI-H460 lung): 428 nM | TGI (NCI-H460 lung): 2560 nM | GI50 (NCI-H522 lung): 1550 nM | TGI (NCI-H522 lung): 3210 nM | GI50 (NCI/ADR-RES ovarian): 1790 nM | TGI (NCI/ADR-RES ovarian): 8910 nM | GI50 (OVCAR-3 ovarian): 1800 nM | TGI (OVCAR-3 ovarian): 5400 nM | GI50 (OVCAR-4 ovarian): 1220 nM | TGI (OVCAR-4 ovarian): 4110 nM | GI50 (OVCAR-5 ovarian): 1790 nM | TGI (OVCAR-5 ovarian): 5210 nM | GI50 (OVCAR-8 ovarian): 937 nM | TGI (OVCAR-8 ovarian): 7770 nM | GI50 (PC-3 prostate): 1200 nM | TGI (PC-3 prostate): 4970 nM | GI50 (RPMI-8226 leukemia): 2080 nM | TGI (RPMI-8226 leukemia): 5060 nM | GI50 (RXF 393 renal): 1020 nM | TGI (RXF 393 renal): 2550 nM | GI50 (SF-268 CNS): 1400 nM | TGI (SF-268 CNS): 4870 nM | GI50 (SF-295 CNS): 1740 nM | TGI (SF-295 CNS): 3860 nM | GI50 (SF-539 CNS): 1670 nM | TGI (SF-539 CNS): 3210 nM | GI50 (SK-MEL-28 melanoma): 1690 nM | TGI (SK-MEL-28 melanoma): 3170 nM | GI50 (SK-MEL-5 melanoma): 1700 nM | TGI (SK-MEL-5 melanoma): 3130 nM | GI50 (SK-OV-3 ovarian): 2230 nM | TGI (SK-OV-3 ovarian): 7200 nM | GI50 (SN12C renal): 1740 nM | TGI (SN12C renal): 10800 nM | GI50 (SNB-19 CNS): 3180 nM | TGI (SNB-19 CNS): 13000 nM | GI50 (SNB-75 CNS): 1410 nM | TGI (SNB-75 CNS): 2740 nM | GI50 (SR leukemia): 1280 nM | TGI (SR leukemia): 5610 nM | GI50 (SW-620 colon): 528 nM | TGI (SW-620 colon): 6820 nM | GI50 (T-47D breast): 2160 nM | TGI (T-47D breast): 5970 nM | GI50 (TK-10 renal): 2580 nM | TGI (TK-10 renal): 7890 nM | GI50 (UACC-257 melanoma): 1780 nM | TGI (UACC-257 melanoma): 3430 nM | GI50 (UACC-62 melanoma): 1690 nM | TGI (UACC-62 melanoma): 3300 nM | GI50 (UO-31 renal): 1310 nM | TGI (UO-31 renal): 3610 nM

— PubChem BioAssay (NCI)
